Measured values from patent publication US10323001B2, “Compositions for modulating a kinase cascade and methods of use thereof” (Athenex, Inc., priority 2006, dated 2019).
Where a name gives a salt, the structure may show the parent alone. Read-outs that look alike come from different tables or passages of the source.

Legend:
[1] = Threshold solubility of salt screen 96 well plate; conditions: salt screen well: 1 Equivalent of Acid, DI water
Protocol: Following each addition, the plate was shaken to encourage mixing for at least 5 minutes prior to evaluation.

[2] = Solubility in DI water and pH 2.0 phosphate buffer; assay type: physicochemical
Protocol: The table below summarizes additional characterization data for the fumaric and maleate KX2-391.MSA salts and compares it to free base, bis-HCl, and MSA salts described above. The results in the table below were obtained using the procedures described above in Examples 5 (XRPD), 6 (DSC), 7 (TGA), and 8 (moisture-sorption).
Solubility experiments were also performed using pH 2.0 phosphate buffer and DI water pH 6.9 and KX2-391.MSA, Form A. Each vial was filled with approximately 50 mg of KX2-391.MSA, Form A and 100 μL aliquots of the corresponding solvent was added until complete dissolution was observed, followed by stirring at room temperature for one and five days. The solids obtained were isolated by filtration, dried under vacuum at room temperature and analyzed by HPLC. The initial HPLC purity of KX2-391.MSA, Form A was 99.4 (% area). The solubility by HPLC of KX2-391.MSA, Form A in phosphate buffer/RT was >500 mg/mL and HPLC purity was measured to be 99.4. The solubility by HPLC of KX2-391.MSA, Form A in DI H2O/RT was >500 mg/mL and HPLC purity was measured to be 99.4.

[3] = Aqueous solubility study in buffers at 37° C.; assay type: physicochemical; conditions: overnight at 37° C.; for solubility: thermodynamic from solid
Protocol: The solubility of KX2-391 mesylate, Form A was determined in SGF (pH 2), acetate buffer (pH 4.5), and phosphate buffer (pH 7.2). Slurries of KX2-391 mesylate in the buffer solution were allowed to equilibrate overnight at 37° C. The solids were then isolated and the supernatant was diluted and analyzed by HPLC. The response of the supernatant was then compared against a calibration curve to determine the solubility.

Thermal stress = assay type: physicochemical; conditions: 60° C., one week
Protocol: Thermal stress experiments were performed on KX2-391.MSA, Form A. Each 1-dram amber vial was filled with approximately 20 mg of KX2-391.MSA, Form A capped and stored in a vacuum over at 60° C. for one week. The resulting solids were analyzed by XRPD and HPLC.

Threshold solubility rank ([1]; Acetone): 1
Threshold solubility rank ([1]; Dioxane): 1
Threshold solubility rank ([1]; THF): 1
pH of solubility sample [2]: 4.6
HPLC purity after solubility experiment ([2]; pH 2): 99.4 % area
Solubility mg/mL ([2]; pH 2): pH 2: >500 mg/mL
pH of solubility sample ([2]; pH 2): (4.3)
solubility ([2]; pH 2, aqueous buffer, thermodynamic from solid): > 500 mg/mL
HPLC purity after solubility experiment ([2]; pH 6.9): 99.4 % area
solubility ([2]; pH 6.9): > 500 mg/mL
solubility ([2]; pH 6.9, water, thermodynamic from solid): > 500 mg/mL
pH after slurry ([3]; SGF (pH 2.0)): 4.5
pH after slurry ([3]; acetate (pH 4.5)): 4.4
solubility ([3]; acetate buffer, aqueous buffer, acetate (pH 4.5)): 737 mg/mL
pH after slurry ([3]; phosphate (pH 7.2)): 4.3
solubility ([3]; phosphate buffer, aqueous buffer, phosphate (pH 7.2)): 150 mg/mL
solubility ([3]; simulated gastric fluid, SGF (pH 2.0)): 700 mg/mL
HPLC purity after thermal stress (Thermal stress): 99.3%
Compound: O=C(Cc1ccc(-c2ccc(OCCN3CCOCC3)cc2)cn1)NCc1ccccc1 [KX2-391.MSA, 2-(5-(4-(2-morpholinoethoxy)phenyl)pyridine-2-yl)-N-benzylacetamide mesylate]
XRPD of solid after thermal stress (Thermal stress): consistent with the pattern of the initial KX2-391.MSA, Form A
